What was measured:
[1] = tested on: bone marrow cell-derived osteoclasts (OC formation); test: In vitro osteoclast formation, count of TRAP-positive multinucleate cells; type: cell-based, mouse; details: for OC differentiation in the presence of carbohydrate chain: carbohydrate chain 10 ng/mL, FIG. 8e; for OC formation (number of TRAP-positive MNCs): KS-II 100 ng/mL, FIGS. 8c, 8d
Procedure: Nonadherent bone marrow cells were seeded in a well plate (in a 24-well plate at 5×10^5 cells/well or in a […] at 3×10^6 cells/well) and were cultured in α-MEM (Gibco BRL) containing 10% FCS (manufactured by Biowest AG) and 10 ng/mL M-CSF (manufactured by R&D Systems, Inc.). After two days, nonadherent cells (including lymphocytes) were washed away, and remaining adherent cells were used as bone marrow-derived macrophages (BMMs). These osteoclast precursor cells (pOCs) were further cultured in the presence of 100 ng/mL of soluble RANKL (manufactured by PeproTech Inc. or Oriental Yeast Co., Ltd.) and 10 ng/mL of M-CSF to obtain osteoclasts. After three days, the osteoclasts were fixed in 10% neutral buffered formalin for three minutes, further kept in a mixture of ethanol/acetone (50:50 v:v) for 1 minute and subsequently incubated in a TRAP staining solution (Naphthol AS-MX phosphate: 5 mg, N,N-dimethylformamide: 0.5 mL, fast red violet LB salt: 30 mg, 0.1 M sodium acetate buffer (pH 5.0) containing 50 mM sodium tartrate: 50 mL) at room temperature. The number of TRAP-positive multinucleate cells (MNCs having three or more nuclei) was counted.
(§1) In order to investigate the influence of GM-CSF on osteoclast formation, mouse GM-CSF enzyme immunoassay (manufactured by PerSeptive Biosystems, Inc.), recombinant GM-CSF (manufactured by PeproTech Inc.), and anti-mouse GM-CSF neutralizing antibody (manufactured by R&D Systems, Inc.) were used. Furthermore, in the proliferation assay, pOCs were seeded (in a 96-well plate at 1×10^4 cells/well) and cultured in the presence of 10 ng/mL M-CSF only or M-CSF and 100 ng/mL RANKL or 20 ng/mL GM-CSF for three days. Subsequently, the cells were exposed to [^3H]TdR (0.5 μCi/mL) overnight.

DCIR = target: T1, DCIR (Mus musculus, UniProt Q9QZ15); test: Immunoprecipitation/immunoblot analysis of DCIR activation in pOC lysate after KS-II stimulation; type: cell-based; details: immunoprecipitated with anti-DCIR antibody, FIG. 8f
T1 construct: immunoblot analysis for ITIM phosphorylation and SHP-1 recruitment in pOC lysate after KS-II stimulation; endogenous in cells; host or cells: mouse bone-marrow-derived osteoclast precursor cells (pOC)
T1 sequence (Q9QZ15 1-238): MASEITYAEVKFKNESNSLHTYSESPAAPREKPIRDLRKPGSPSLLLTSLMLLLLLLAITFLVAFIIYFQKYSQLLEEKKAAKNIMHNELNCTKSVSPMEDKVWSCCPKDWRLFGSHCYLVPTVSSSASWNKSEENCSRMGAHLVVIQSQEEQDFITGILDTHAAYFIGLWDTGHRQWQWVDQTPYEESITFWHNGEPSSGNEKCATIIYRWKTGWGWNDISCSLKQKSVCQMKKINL
From the text: In immunoprecipitation analysis, Protein G-Sepharose 4 Fast Flow (manufactured by GE Healthcare), mouse DCIR-specific antibody (320511: manufactured by R&D Systems, Inc.), phospho-Tyr (4G10: manufactured by Millipore), and SHP-1 (HG213: Upstate) were used. As the secondary antibody, a rabbit IgG-specific HRP-linked polyclonal antibody (manufactured by Cell Signaling) or a rat IgG-specific HRP-linked polyclonal antibody (manufactured by Zymed) was used.

[2] = target: T2, recombinant mouse DCIR (mDCIR) (Mus musculus, UniProt Q9QZ15); test: Carbohydrate chain binding assay by ELISA; details: KS-II from bovine articular cartilage immobilised on ELISA plate; FIG. 8b
T2 construct: containing an extracellular domain (99th to 238th residues) was expressed as an inclusion body in E. coli; made in house
T2 sequence (Q9QZ15 99-238): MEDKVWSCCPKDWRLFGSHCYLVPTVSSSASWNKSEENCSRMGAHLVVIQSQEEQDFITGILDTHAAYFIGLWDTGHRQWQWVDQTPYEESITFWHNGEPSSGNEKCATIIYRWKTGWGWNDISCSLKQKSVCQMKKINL
Procedure: Carbohydrate chain binding assay was performed in accordance with the method described in J. Bio. Chem., 2004, 279, 29043-29049. KS-II was diluted to 2 mg/mL with 100 mM sodium acetate (pH 5.5) and was oxidized with 2 mM sodium metaperiodate on ice for 1 hour to obtain a reactive aldehyde group. After further dilution, KS-II was incubated on a Covalink ELISA plate at 4° C. overnight and was reduced with 0.3% sodium cyanoborohydride at room temperature for 1.5 hours for covalent bonding. The plate was washed and was blocked with 2% bovine serum albumin (fraction V: manufactured by Sigma Corp.) at 37° C. for two hours. A recombinant mouse DCIR (mDCIR) containing an extracellular domain (99th to 238th residues) was expressed as an inclusion body in E. coli BL21 (DE3) pLysS using a pGMT7 plasmid and the […] was refolded by a typical dilution method. The mDCIR was incubated on the blocked and refolded plate at 4° C. overnight. Binding of protein was detected using anti-DCIR antibodies (a mixture of 320507 and 320511: manufactured by R&D Systems, Inc.) and HRP-linked rat IgG (manufactured by Zymed) in the presence of a TMB substrate (manufactured by Dako).

[3] = tested on: osteoclast precursor cells (pOCs); test: Osteoclast differentiation with hybridoma supernatant or KS-II, count of TRAP-positive osteoclasts; type: cell-based; details: KS-II 10 ng/mL; M-CSF 10 ng/mL + RANKL 100 ng/mL, three days; versus untreated; FIG. 13
Procedure: Furthermore, activities of the above-mentioned antibodies on osteoclast formation were evaluated using the activity of keratan sulfate as an indicator. Nonadherent bone marrow cells were seeded in a well plate (a 96-well plate at 1×10^5 cells/well) and were cultured in α-MEM (Gibco BRL) containing 10% FCS (manufactured by Biowest AG) and 10 ng/mL M-CSF (manufactured by R&D Systems, Inc.). After two days, the nonadherent cells (including lymphocytes) were washed away, and the remaining adherent cells were used as bone marrow-derived macrophages (BMMs). These osteoclast precursor cells (pOCs) were further cultured in the presence of 100 ng/mL of soluble RANKL (manufactured by PeproTech Inc. or Oriental Yeast Co., Ltd.) and 10 ng/mL of M-CSF to obtain osteoclasts. During the culturing, the hybridoma supernatant (one-tenth amount) or keratan sulfate (KS-II: 10 ng/mL) was added to the culture medium. After three days, the cells were collected and stained with TRAP. The number of TRAP-positive osteoclasts (having three or more nuclei) was counted. Untreated cells were used as a control (NT).

TNF-α = TNF-α production in CpG-containing culture, measured by ELISA; type: cell-based; details: CpG 1 μM, 12 hours; KS-II 10 ng/mL, versus CpG alone; FIG. 12
Procedure: The anti-DCIR antibodies derived from hybridomas prepared in Example 4 were evaluated for binding ability to DCIR. Since DCIR has been reported to participate in suppression of immunoreaction (Nature Medicine, 2008, vol. 14, no. 2: 176-180), the DCIR-binding ability of each antibody was evaluated using expression of tumor necrosis factor α (TNF-α), which is an inflammatory cytokine, as a standard.
The hybridoma prepared in Example 4 was cultured in a culture medium containing CpG (concentration: 1 μM) for 12 hours, and the culture supernatant was collected. Separately, CpG ODN 1668 (Operon Technologies, Inc.) was cultured in the same medium or a medium further containing keratan sulfate (KS-II: 10 ng/mL), and the culture supernatant was collected. As a control, the cells were cultured in a CpG-free culture medium (NT). The TNF-α amount in each supernatant was measured by ELISA.

OPG/RANKL ratio = test: Real-time RT-PCR of OPG/RANKL ratio in calvarial OBs; type: cell-based; details: WT mouse-derived OBs only (not KO); FIGS. 10k, 10l
Procedure: Semi-quantitative RT-PCR and real-time RT-PCR were slightly modified, but basically performed in accordance with the methods described in Nature Medicine, 2008, vol. 14, no. 2: 176-180 and Arthritis Res. Ther., 2006, 8, R100, 1-13. Total RNA was prepared by a typical acid guanidinium thiocyanate-phenol-chloroform method or a method using Sepasol-RNA I Super (manufactured by Nacalai Tesque, Inc.). The prepared RNA was reverse transcribed with SuperScript III First-Strand Synthesis System for RT-PCR (manufactured by Invitrogen) to prepare cDNA.
The real-time RT-PCR was performed using primers shown in Table 1, SYBR Green qPCR kit (manufactured by Invitrogen), and iCycler (manufactured by Bio-Rad Laboratories, Inc.).

calvarial OBs = test: Mineralization of calvarial osteoblasts (alizarin red and ALP staining of osteogenic culture); type: cell-based, mouse; details: FIG. 10f
Procedure: Primary osteoblasts were isolated from the calvaria of a new born mouse. The calvaria was washed with PBS and was digested in α-MEM containing 0.25% trypsin and 2 mg/mL collagenase P (manufactured by Roche) at 37° C. for 20 minutes. The supernatant was removed, and the cells were further digested for 60 minutes.
In order to induce osteogenesis, primary osteoblasts (in a 96-well plate at 2×10^4 cells/well, in a 24-well plate at 5×10^4 cells/well, or in a 6-well plate at 2×10^5 cells/well) were cultured to confluent, and the culture medium was replaced by a culture medium containing 10 mM β-glycerophosphate and 50 μg/mL ascorbic acid. The culture medium was replaced three times in 21 days.
The osteoblasts cultured for 21 days were stained with alizarin red, von Kossa, and alkaline phosphatase (ALP).
The culture solution was removed from the osteoblasts cultured for 21 days by using PBS, and the osteoblasts were fixed with 3.7% formalin solution (Nacalai Tesque, Inc.) for 10 minutes. […]
Primary osteoblasts were cultured in a 96-well plate for 21 days and were measured with a TRACP & ALP Assay Kit (TaKaRa Bio Inc.). […] The reaction was terminated with 50 μL of a reaction terminating solution, and subsequently the activity was measured with MICROPLATE READER MTP-300 (CORONA ELECTRIC Co., Ltd.) at OD405.

[4] = tested on: osteoclast precursor cells (pOCs); test: Proliferation assay using pOC after GM-CSF stimulation; type: cell-based, mouse; details: Dcir−/− pOCs; M-CSF 10 ng/mL and GM-CSF 20 ng/mL
Procedure: as §1

CC(=O)N[C@H]1C(O)O[C@H](CO)[C@@H](O[C@@H]2O[C@H](CO)[C@H](O)[C@H](O)[C@H]2O)[C@@H]1O (some centres unmarked) [LacNAc, N-acetyllactosamine]
OC differentiation in the presence of carbohydrate chain [1]: not influenced

chondroitin sulfate A
OC differentiation in the presence of carbohydrate chain [1]: not influenced

dermatan sulfate
OC differentiation in the presence of carbohydrate chain [1]: not influenced

keratan sulfate-II [KS-II]
phosphorylation of immunoreceptor tyrosine-based inhibitory motif (ITIM) in DCIR (DCIR): concentration-dependently accelerates | recruitment of tyrosine phosphatase SHP-1 in DCIR (DCIR): concentration-dependently accelerates | binding of recombinant mouse DCIR to KS-II [2]: concentration-dependently binds | OC formation (number of TRAP-positive MNCs) ([1]; Dcir−/− cell culture): did not inhibit | OC formation (number of TRAP-positive MNCs) ([1]; wild-type (WT) bone marrow cell culture): considerably inhibited | differentiation to osteoclast (TRAP-positive, three or more nuclei) [3]: suppressed | TNF-α production (TNF-α): suppressed | OPG/RANKL ratio (OPG/RANKL ratio): decreases | mineralization of OBs (calvarial OBs; Dcir−/− OBs): does not suppress | mineralization of OBs (calvarial OBs; WT OBs): suppresses

B1: GM-CSF: recombinant mouse GM-CSF (manufactured by PeproTech Inc.) (protein, UniProt P01587 18-141, looked up)
Granulocyte-macrophage …: APTRSPITVTRPWKHVEAIKEALNLLDDMPVTLNEEVEVVSNEFSFKKLTCVQTRLKIFEQGLRGNFTKLKGALNMTASYYQTYCPPTPETDCETQVTTYADFIDSLKTFLTDIPFECKKPGQK
proliferation of pOCs [4]: significantly increased

— patent US20130058957A1, “DENDRITIC CELL IMMUNORECEPTOR AGONIST” (THE UNIVERSITY OF TOKYO, priority 2010, published 2013)
